According to PubChem BioAssay AID2060619 (Molecular Pharmacology Branch, DTP, NCI, 2025):

Tested on: 323965-272-R-J2-PDC complex spheroid viability
Test: Anticancer human tumor 323965-272-R-J2-PDC patient-derived pancreatic carcinoma cell line growth inhibition [CLK]
Details: for IC50: curve of first compound; for viability, T/C: stronger effect = lower value
Outline: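 Patient-derived tumor cells grown as complex spheroids with HUVEC endothelial cells and mesenchymal stem cells, treated with drug combinations. Concentrations descend in half-log steps from near clinical Cmax, or from 10 microM if Cmax unknown.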

[1] = second compound 0.0316 µM, first compound 0.0316 µM
[2] = second compound 0.0316 µM, first compound 0.1 µM
[3] = second compound 0.0316 µM, first compound 0.316 µM
[4] = second compound 0.0316 µM, first compound 1 µM
[5] = second compound 0.0316 µM, first compound 3.16 µM
[6] = second compound 0.0316 µM, first compound 10 µM
[7] = second compound 0.1 µM, first compound 0.0316 µM
[8] = second compound 0.1 µM, first compound 0.1 µM
[9] = second compound 0.1 µM, first compound 0.316 µM
[10] = second compound 0.1 µM, first compound 1 µM
[11] = second compound 0.1 µM, first compound 3.16 µM
[12] = second compound 0.1 µM, first compound 10 µM
[13] = second compound 0.316 µM, first compound 0.0316 µM
[14] = second compound 0.316 µM, first compound 0.1 µM
[15] = second compound 0.316 µM, first compound 0.316 µM
[16] = second compound 0.316 µM, first compound 1 µM
[17] = second compound 0.316 µM, first compound 3.16 µM
[18] = second compound 0.316 µM, first compound 10 µM
[19] = second compound 1 µM, first compound 0.0316 µM
[20] = second compound 1 µM, first compound 0.1 µM
[21] = second compound 1 µM, first compound 0.316 µM
[22] = second compound 1 µM, first compound 1 µM
[23] = second compound 1 µM, first compound 3.16 µM
[24] = second compound 1 µM, first compound 10 µM
[25] = second compound 3.16 µM, first compound 0.0316 µM
[26] = second compound 3.16 µM, first compound 0.1 µM
[27] = second compound 3.16 µM, first compound 0.316 µM
[28] = second compound 3.16 µM, first compound 1 µM
[29] = second compound 3.16 µM, first compound 3.16 µM
[30] = second compound 3.16 µM, first compound 10 µM
[31] = second compound 10 µM, first compound 0.0316 µM
[32] = second compound 10 µM, first compound 0.1 µM
[33] = second compound 10 µM, first compound 0.316 µM
[34] = second compound 10 µM, first compound 1 µM
[35] = second compound 10 µM, first compound 3.16 µM
[36] = second compound 10 µM, first compound 10 µM
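Also: spheroids exposed to agents for seven days before readout.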
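For viability, T/C in this document: percent of DMSO vehicle control wells so 100% = untreated growth.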

Question: Which results are given for `COC1C=CCC(C)C(C)S(=O)(=O)NC(=O)c2ccc3c(c2)N(CC2CCC21)CC1(CCCc2cc(Cl)ccc21)CO3` (stereo not drawn) + CNC(=O)c1ccc(Nc2nc(OC3CCCC3)c3c(-c4ccc5nc(C)oc5c4)c[nH]c3n2)c(OC)c1?
Answer: IC50 (second compound 0.0316 µM): 2200 nM; IC50 (second compound 0.1 µM): 1370 nM; IC50 (second compound 0.316 µM): 580 nM; IC50 (second compound 1 µM): < 31.6 nM; IC50 (second compound 3.16 µM): < 31.6 nM; IC50 (second compound 10 µM): 53.1 nM; viability, T/C [1]: 106%; viability, T/C [2]: 119%; viability, T/C [3]: 85.4%; viability, T/C [4]: 68.3%; viability, T/C [5]: 43.9%; viability, T/C [6]: 23.2%; viability, T/C [7]: 105%; viability, T/C [8]: 86.5%; viability, T/C [9]: 68.8%; viability, T/C [10]: 57.4%; viability, T/C [11]: 36.8%; viability, T/C [12]: 25.1%; viability, T/C [13]: 74.1%; viability, T/C [14]: 62%; viability, T/C [15]: 56.9%; viability, T/C [16]: 42.3%; viability, T/C [17]: 39.1%; viability, T/C [18]: 21.4%; viability, T/C [19]: 47.6%; viability, T/C [20]: 47.8%; viability, T/C [21]: 39.1%; viability, T/C [22]: 37.4%; viability, T/C [23]: 30.7%; viability, T/C [24]: 21.5%; viability, T/C [25]: 46.1%; viability, T/C [26]: 43.5%; viability, T/C [27]: 36.7%; viability, T/C [28]: 29.7%; viability, T/C [29]: 28.4%; viability, T/C [30]: 20.7%; viability, T/C [31]: 54.7%; viability, T/C [32]: 45.3%; viability, T/C [33]: 32.8%; viability, T/C [34]: 29.2%; viability, T/C [35]: 24.8%; viability, T/C [36]: 18.1%

Question: How did the IC50 (second compound 0.0316 µM) turn out when `COc1cccc2c1C(=O)c1c(O)c3c(c(O)c1C2=O)CC(O)(C(=O)CO)CC3OC1CC(N)C(O)C(C)O1` (stereo not drawn) + CN1CCN(c2cc(C(=O)Nc3cc4cc(-c5cnn(C)c5)ccc4cn3)ccn2)CC1 was run?
Answer: 117 nM

Question: And the IC50 (second compound 0.1 µM)?
Answer: < 31.6 nM

Question: And the IC50 (second compound 0.316 µM)?
Answer: < 31.6 nM

Question: What about the IC50 (second compound 1 µM) of the same molecule?
Answer: < 31.6 nM

Question: And the IC50 (second compound 3.16 µM)?
Answer: < 31.6 nM

Question: What about the IC50 (second compound 10 µM) of the same molecule?
Answer: < 31.6 nM

Question: What about the viability, T/C [1] of the same molecule?
Answer: 67.8%

Question: What about the viability, T/C [2] of the same molecule?
Answer: 40.7%

Question: And the viability, T/C [3]?
Answer: 39.4%

Question: What about the viability, T/C [4] of the same molecule?
Answer: 34.8%

Question: And the viability, T/C [5]?
Answer: 25.3%

Question: What about the viability, T/C [6] of the same molecule?
Answer: 1.54%

Question: And the viability, T/C [7]?
Answer: 54.4%

Question: What about the viability, T/C [8] of the same molecule?
Answer: 31.6%

Question: What about the viability, T/C [9] of the same molecule?
Answer: 29.3%

Question: And the viability, T/C [10]?
Answer: 28.2%

Question: And the viability, T/C [11]?
Answer: 19.1%

Question: And the viability, T/C [12]?
Answer: 1.41%

Question: What about the viability, T/C [13] of the same molecule?
Answer: 20.3%

Question: And the viability, T/C [14]?
Answer: 19.8%

Question: What about the viability, T/C [15] of the same molecule?
Answer: 16.1%

Question: And the viability, T/C [16]?
Answer: 13.1%

Question: And the viability, T/C [17]?
Answer: 5.8%

Question: And the viability, T/C [18]?
Answer: 0.68%

Question: What about the viability, T/C [19] of the same molecule?
Answer: 2.27%

Question: And the viability, T/C [20]?
Answer: 3.05%

Question: What about the viability, T/C [21] of the same molecule?
Answer: 2.16%

Question: What about the viability, T/C [22] of the same molecule?
Answer: 1.22%

Question: And the viability, T/C [23]?
Answer: 1.2%

Question: And the viability, T/C [24]?
Answer: 0.38%

Question: What about the viability, T/C [25] of the same molecule?
Answer: 4.1%

Question: And the viability, T/C [26]?
Answer: 4.05%

Question: And the viability, T/C [27]?
Answer: 2.98%

Question: What about the viability, T/C [28] of the same molecule?
Answer: 1.5%

Question: What about the viability, T/C [29] of the same molecule?
Answer: 1.35%

Question: And the viability, T/C [30]?
Answer: 0.43%

Question: What about the viability, T/C [31] of the same molecule?
Answer: 4.15%

Question: What about the viability, T/C [32] of the same molecule?
Answer: 4.78%

Question: And the viability, T/C [33]?
Answer: 4.17%

Question: And the viability, T/C [34]?
Answer: 1.38%

Question: And the viability, T/C [35]?
Answer: 1.47%

Question: What about the viability, T/C [36] of the same molecule?
Answer: 0.19%

Question: Which results are given for `O=c1[nH]cc(F)c(=O)[nH]1` + CN1CCN(c2cc(C(=O)Nc3cc4cc(-c5cnn(C)c5)ccc4cn3)ccn2)CC1?
Answer: IC50 (second compound 0.0316 µM): 7400 nM; IC50 (second compound 0.1 µM): 3150 nM; IC50 (second compound 0.316 µM): < 31.6 nM; IC50 (second compound 1 µM): < 31.6 nM; IC50 (second compound 3.16 µM): < 31.6 nM; IC50 (second compound 10 µM): < 31.6 nM; viability, T/C [1]: 99.5%; viability, T/C [2]: 96.8%; viability, T/C [3]: 99.3%; viability, T/C [4]: 85.8%; viability, T/C [5]: 63%; viability, T/C [6]: 45.4%; viability, T/C [7]: 62.8%; viability, T/C [8]: 85.4%; viability, T/C [9]: 73.5%; viability, T/C [10]: 67.4%; viability, T/C [11]: 50.2%; viability, T/C [12]: 36.7%; viability, T/C [13]: 26.1%; viability, T/C [14]: 27%; viability, T/C [15]: 26.6%; viability, T/C [16]: 25.2%; viability, T/C [17]: 24.5%; viability, T/C [18]: 22.6%; viability, T/C [19]: 3.34%; viability, T/C [20]: 2.81%; viability, T/C [21]: 3.78%; viability, T/C [22]: 3.65%; viability, T/C [23]: 4.75%; viability, T/C [24]: 3.29%; viability, T/C [25]: 4.71%; viability, T/C [26]: 4.34%; viability, T/C [27]: 4.13%; viability, T/C [28]: 4.08%; viability, T/C [29]: 6.26%; viability, T/C [30]: 5.19%; viability, T/C [31]: 3.98%; viability, T/C [32]: 3.73%; viability, T/C [33]: 3.94%; viability, T/C [34]: 4.27%; viability, T/C [35]: 7.34%; viability, T/C [36]: 3.84%

Question: Which IC50 (second compound 0.0316 µM) does the source give for `C#Cc1c(F)ccc2cc(O)cc(-c3ncc4c(N5CC6CCC(C5)N6)nc(OCC56CCCN5CC(F)C6)nc4c3F)c12` (stereo not drawn) + CNC(=O)c1ccc(Nc2nc(OC3CCCC3)c3c(-c4ccc5nc(C)oc5c4)c[nH]c3n2)c(OC)c1 here?
Answer: > 10000 nM

Question: And the IC50 (second compound 0.1 µM)?
Answer: 2630 nM

Question: And the IC50 (second compound 0.316 µM)?
Answer: 633 nM

Question: What about the IC50 (second compound 1 µM) of the same molecule?
Answer: < 31.6 nM

Question: What about the IC50 (second compound 3.16 µM) of the same molecule?
Answer: < 31.6 nM

Question: And the IC50 (second compound 10 µM)?
Answer: < 31.6 nM

Question: And the viability, T/C [1]?
Answer: 92.6%

Question: What about the viability, T/C [2] of the same molecule?
Answer: 88.8%

Question: What about the viability, T/C [3] of the same molecule?
Answer: 98.8%

Question: And the viability, T/C [4]?
Answer: 74.3%

Question: What about the viability, T/C [5] of the same molecule?
Answer: 62.6%

Question: And the viability, T/C [6]?
Answer: 51.4%

Question: What about the viability, T/C [7] of the same molecule?
Answer: 75%

Question: And the viability, T/C [8]?
Answer: 77.9%

Question: What about the viability, T/C [9] of the same molecule?
Answer: 62.5%

Question: And the viability, T/C [10]?
Answer: 58.7%

Question: What about the viability, T/C [11] of the same molecule?
Answer: 47.8%

Question: What about the viability, T/C [12] of the same molecule?
Answer: 38.6%

Question: What about the viability, T/C [13] of the same molecule?
Answer: 58.9%

Question: And the viability, T/C [14]?
Answer: 59.8%

Question: What about the viability, T/C [15] of the same molecule?
Answer: 51.9%

Question: And the viability, T/C [16]?
Answer: 49.3%

Question: And the viability, T/C [17]?
Answer: 35.8%

Question: And the viability, T/C [18]?
Answer: 32.3%

Question: What about the viability, T/C [19] of the same molecule?
Answer: 43.2%

Question: What about the viability, T/C [20] of the same molecule?
Answer: 37.7%

Question: What about the viability, T/C [21] of the same molecule?
Answer: 42.4%

Question: And the viability, T/C [22]?
Answer: 39.3%

Question: And the viability, T/C [23]?
Answer: 30.8%

Question: What about the viability, T/C [24] of the same molecule?
Answer: 23.2%

Question: What about the viability, T/C [25] of the same molecule?
Answer: 36.5%

Question: What about the viability, T/C [26] of the same molecule?
Answer: 43.9%

Question: What about the viability, T/C [27] of the same molecule?
Answer: 36.8%

Question: And the viability, T/C [28]?
Answer: 33.5%

Question: What about the viability, T/C [29] of the same molecule?
Answer: 26%

Question: What about the viability, T/C [30] of the same molecule?
Answer: 20.2%

Question: And the viability, T/C [31]?
Answer: 39.6%

Question: And the viability, T/C [32]?
Answer: 38.2%

Question: And the viability, T/C [33]?
Answer: 38.1%

Question: And the viability, T/C [34]?
Answer: 29.8%

Question: What about the viability, T/C [35] of the same molecule?
Answer: 25.7%

Question: What about the viability, T/C [36] of the same molecule?
Answer: 19.6%
